What was measured:
CaPma1p [1] = biological target: CaPma1p (Candida albicans, UniProt A0A1D8PJ01, A570P/A595V/D557N/D559E/I574L/N594R/S564G/S601N/V186I/V531I); assay: biochemical
CaPma1p [2] = biological target: CaPma1p (Candida albicans, UniProt A0A1D8PJ01); assay: ATPase activity; assay type: biochemical
CaPma1p [3] = biological target: CaPma1p (Candida albicans, UniProt A0A1D8PJ01, A570P/A595V/I574L/N594R/S601N); assay: biochemical
[4] = biological target: CaPma1p-ScPma2p chimera expressed in Saccharomyces cerevisiae (C. albicans SC5314 (with residues of S. cerevisiae Pma2p)) (UniProt P28877); assay: SEC

Row | Molecule | IC50 (CaPma1p [1]) [µM] | IC50 (CaPma1p [2]) [µM] | IC50 (CaPma1p [3]) [µM] | stoichiometry N [4]
1 | [O]=[V]([OH])([OH])[OH] [vanadate] | 2 to 9 | 2 to 9 | 2 to 9 | –
2 | CaPma1p-ScPma2p chimera expressed in Saccharomyces cerevisiae (from UniProt P28877 1-895) (enzyme) | – | – | – | > 4

Source: article PMC4428687 (FEMS yeast research, 2013)
